Calls of active or inactive are those of the source. No cut-off for these calls is given here.
How the values were obtained:
[1] = molecular target: Substance-P receptor (Homo sapiens) (UniProt P25103); test: Antagonist activity at human NK1 receptor assessed as change in intracellular calcium level at <5 uM by fluorescence assay; assay type: functional, cell-based
[2] = molecular target: Acetylcholine receptor subunit alpha (Homo sapiens) (UniProt P02708); test: Inhibition of human alpha1 nACHR assessed as change in intracellular calcium level at <5 uM by fluorescence assay; assay type: cell-based
[3] = molecular target: T1, Bromodomain-containing protein 9 (Homo sapiens) (UniProt Q9H8M2); conditions: Kasumi 1, 10 uM
T1 sequence (whole entry): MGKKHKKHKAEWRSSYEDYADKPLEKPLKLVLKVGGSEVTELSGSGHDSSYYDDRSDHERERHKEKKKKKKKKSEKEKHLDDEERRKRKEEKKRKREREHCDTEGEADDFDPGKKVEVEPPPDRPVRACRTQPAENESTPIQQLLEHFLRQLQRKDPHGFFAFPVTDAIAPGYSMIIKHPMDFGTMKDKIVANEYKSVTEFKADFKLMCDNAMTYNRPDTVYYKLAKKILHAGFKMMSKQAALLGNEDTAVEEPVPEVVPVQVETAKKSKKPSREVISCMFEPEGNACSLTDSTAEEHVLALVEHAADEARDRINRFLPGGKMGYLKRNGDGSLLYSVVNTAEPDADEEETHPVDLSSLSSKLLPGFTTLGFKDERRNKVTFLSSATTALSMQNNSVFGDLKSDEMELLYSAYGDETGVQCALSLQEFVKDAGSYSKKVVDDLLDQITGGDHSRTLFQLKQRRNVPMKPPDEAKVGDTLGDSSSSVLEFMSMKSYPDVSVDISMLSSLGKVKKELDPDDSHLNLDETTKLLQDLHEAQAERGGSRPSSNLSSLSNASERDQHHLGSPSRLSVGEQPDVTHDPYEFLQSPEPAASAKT
Description: Inhibition of BRD9 in human Kasumi-1 cells assessed as downregulation of FES gene at 10 uM after 6 hrs by qPCR method

[4] = molecular target: Muscarinic acetylcholine receptor M1 (Homo sapiens) (UniProt P11229); test: Agonist activity at human muscarinic 1 receptor assessed as change in intracellular calcium level at <5 uM by fluorescence assay; assay type: functional, cell-based
[5] = molecular target: Beta-2 adrenergic receptor (Homo sapiens) (UniProt P07550); test: Antagonist activity at human beta-2 adrenergic receptor at <5 uM by TR-FRET assay
[6] = molecular target: Prostaglandin G/H synthase 2 (Homo sapiens) (UniProt P35354); test: Inhibition of human COX2 at <5 uM by FLINT assay
[7] = molecular target: T1, Bromodomain-containing protein 9 (Homo sapiens); conditions: Kasumi 1, 10 uM; remark: listed apart in the source
Description: Inhibition of BRD9 in human Kasumi-1 cells assessed as downregulation of CLEC1 gene at 10 uM after 6 hrs by qPCR method

[8] = molecular target: T1, Bromodomain-containing protein 9 (Homo sapiens); conditions: Kasumi 1, 10 uM; remark: listed apart in the source
Description: Inhibition of BRD9 in human Kasumi-1 cells assessed as downregulation of SAMSN1 gene at 10 uM after 6 hrs by qPCR method

[9] = molecular target: Amine oxidase [flavin-containing] B (Homo sapiens, UniProt P27338); test: Inhibition of human MAO-B at <5 uM by FLINT assay
[10] = molecular target: Amine oxidase [flavin-containing] A (Homo sapiens, UniProt P21397); test: Inhibition of human MAO-A at <5 uM by FLINT assay
[11] = molecular target: Glutamate receptor ionotropic, NMDA 2B (Homo sapiens) (UniProt Q13224); test: Antagonist activity at human NMDA 2B receptor assessed as change in intracellular calcium level at <5 uM by fluorescence assay; assay type: cell-based
[12] = molecular target: Sodium-dependent noradrenaline transporter (Homo sapiens) (UniProt P23975); test: Antagonist activity at human NE transporter at <5 uM by scintillation proximity assay
[13] = molecular target: Sodium-dependent serotonin transporter (Homo sapiens) (UniProt P31645); test: Antagonist activity at human SERT transporter at <5 uM by scintillation proximity assay
[14] = molecular target: 5-hydroxytryptamine receptor 2C (Homo sapiens) (UniProt P28335); test: Antagonist activity at human 5HT2C receptor assessed as change in intracellular calcium level at <5 uM by fluorescence assay; assay type: functional, cell-based
[15] = molecular target: Mu-type opioid receptor (Homo sapiens) (UniProt P35372); test: Agonist activity at human mu opiod receptor at <5 uM by scintillation proximity assay
Homo sapiens = organism: Homo sapiens; test: Antagonist activity at human GABA-A receptor at <5 uM by electrophysiology
[16] = Lipophilicity, logD of the compound at pH 7.4; assay type: physicochemical; conditions: buffer
[17] = molecular target: Histamine H1 receptor (Homo sapiens) (UniProt P35367); test: Antagonist activity at human histamine H1 receptor assessed as change in intracellular calcium level at <5 uM by fluorescence assay; assay type: functional, cell-based
[18] = molecular target: Adenosine receptor A2a (Homo sapiens) (UniProt P29274); test: Agonist activity at human Adenosine A2a receptor at <5 uM by TR-FRET assay
[19] = molecular target: Alpha-2C adrenergic receptor (Homo sapiens) (UniProt P18825); test: Inhibition of human alpha 2c adrenergic receptor at <5 uM by TR-FRET assay
[20] = Permeability of the compound by PAMPA; assay type: ADME; conditions: read-out: permeability
[21] = molecular target: Alpha-1B adrenergic receptor (Homo sapiens) (UniProt P35368); test: Antagonist activity at human Alpha 1b adrenergic receptor assessed as change in intracellular calcium level at <5 uM by fluorescence assay; assay type: functional, cell-based
[22] = molecular target: Muscarinic acetylcholine receptor M2 (Homo sapiens) (UniProt P08172); test: Antagonist activity at human muscarinic 2 receptor assessed as change in intracellular calcium level at <5 uM by fluorescence assay; assay type: functional, cell-based
[23] = molecular target: Kappa-type opioid receptor (Homo sapiens) (UniProt P41145); test: Agonist activity at human kappa opiod receptor at <5 uM by scintillation proximity assay

Sequence of Muscarinic acetylcholine receptor M1 (Homo sapiens) (P11229 whole entry): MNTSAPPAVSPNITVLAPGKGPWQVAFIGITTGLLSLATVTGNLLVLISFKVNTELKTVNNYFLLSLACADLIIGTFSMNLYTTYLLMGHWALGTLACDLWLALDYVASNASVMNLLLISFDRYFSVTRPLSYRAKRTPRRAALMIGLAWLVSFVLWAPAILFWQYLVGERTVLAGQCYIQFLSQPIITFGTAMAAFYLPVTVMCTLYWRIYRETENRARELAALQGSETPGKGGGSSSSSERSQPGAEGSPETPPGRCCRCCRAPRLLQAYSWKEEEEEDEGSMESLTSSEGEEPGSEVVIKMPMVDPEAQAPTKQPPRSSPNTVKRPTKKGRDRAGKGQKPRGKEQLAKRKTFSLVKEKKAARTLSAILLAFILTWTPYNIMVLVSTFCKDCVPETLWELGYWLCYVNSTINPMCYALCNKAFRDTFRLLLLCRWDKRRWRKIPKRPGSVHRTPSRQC
Sequence of Prostaglandin G/H synthase 2 (Homo sapiens) (P35354 whole entry): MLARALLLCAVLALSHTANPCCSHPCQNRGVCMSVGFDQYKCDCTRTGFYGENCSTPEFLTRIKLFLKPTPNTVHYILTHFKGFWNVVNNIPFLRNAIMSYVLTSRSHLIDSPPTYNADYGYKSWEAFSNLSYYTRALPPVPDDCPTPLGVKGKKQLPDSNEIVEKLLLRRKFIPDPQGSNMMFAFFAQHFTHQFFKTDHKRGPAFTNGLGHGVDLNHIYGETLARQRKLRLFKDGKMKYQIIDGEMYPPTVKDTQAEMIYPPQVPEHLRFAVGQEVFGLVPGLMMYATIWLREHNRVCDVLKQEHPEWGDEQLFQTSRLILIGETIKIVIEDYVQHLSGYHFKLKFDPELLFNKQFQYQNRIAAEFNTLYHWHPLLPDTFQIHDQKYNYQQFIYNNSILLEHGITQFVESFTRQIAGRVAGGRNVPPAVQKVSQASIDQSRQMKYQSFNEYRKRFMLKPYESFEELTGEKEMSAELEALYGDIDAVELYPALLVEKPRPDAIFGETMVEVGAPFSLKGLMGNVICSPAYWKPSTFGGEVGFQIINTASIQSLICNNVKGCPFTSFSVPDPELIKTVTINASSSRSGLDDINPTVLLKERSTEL
Sequence of Sodium-dependent noradrenaline transporter (Homo sapiens) (P23975 whole entry): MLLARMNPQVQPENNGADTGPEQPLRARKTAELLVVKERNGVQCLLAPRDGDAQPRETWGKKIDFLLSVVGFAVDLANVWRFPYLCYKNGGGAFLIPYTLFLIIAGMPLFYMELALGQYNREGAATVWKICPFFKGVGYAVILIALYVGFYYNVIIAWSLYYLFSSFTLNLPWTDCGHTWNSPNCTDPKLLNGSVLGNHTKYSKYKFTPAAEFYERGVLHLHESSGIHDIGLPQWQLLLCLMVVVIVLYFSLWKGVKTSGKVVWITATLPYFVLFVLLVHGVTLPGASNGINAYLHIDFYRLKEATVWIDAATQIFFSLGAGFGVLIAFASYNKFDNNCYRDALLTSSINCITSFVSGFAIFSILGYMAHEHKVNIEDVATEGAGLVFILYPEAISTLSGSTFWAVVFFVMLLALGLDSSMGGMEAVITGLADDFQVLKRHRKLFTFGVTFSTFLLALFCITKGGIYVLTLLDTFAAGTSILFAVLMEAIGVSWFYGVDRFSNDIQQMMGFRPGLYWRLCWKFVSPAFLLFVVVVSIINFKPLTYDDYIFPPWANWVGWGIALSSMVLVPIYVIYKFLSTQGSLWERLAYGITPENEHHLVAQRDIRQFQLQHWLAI
Sequence of Muscarinic acetylcholine receptor M2 (Homo sapiens) (P08172 whole entry): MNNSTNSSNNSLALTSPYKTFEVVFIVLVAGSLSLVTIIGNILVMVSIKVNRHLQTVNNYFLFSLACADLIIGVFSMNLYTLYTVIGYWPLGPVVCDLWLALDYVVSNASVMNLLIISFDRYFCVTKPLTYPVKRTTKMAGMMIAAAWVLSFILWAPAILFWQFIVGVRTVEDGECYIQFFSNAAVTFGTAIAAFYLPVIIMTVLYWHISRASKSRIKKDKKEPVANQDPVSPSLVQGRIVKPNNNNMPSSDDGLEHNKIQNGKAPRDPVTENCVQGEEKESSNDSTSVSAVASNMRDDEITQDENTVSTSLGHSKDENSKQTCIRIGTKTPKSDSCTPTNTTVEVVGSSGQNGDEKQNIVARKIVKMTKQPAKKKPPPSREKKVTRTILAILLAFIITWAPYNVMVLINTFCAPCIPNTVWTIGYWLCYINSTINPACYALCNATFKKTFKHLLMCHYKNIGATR
Sequence of Substance-P receptor (Homo sapiens) (P25103 whole entry): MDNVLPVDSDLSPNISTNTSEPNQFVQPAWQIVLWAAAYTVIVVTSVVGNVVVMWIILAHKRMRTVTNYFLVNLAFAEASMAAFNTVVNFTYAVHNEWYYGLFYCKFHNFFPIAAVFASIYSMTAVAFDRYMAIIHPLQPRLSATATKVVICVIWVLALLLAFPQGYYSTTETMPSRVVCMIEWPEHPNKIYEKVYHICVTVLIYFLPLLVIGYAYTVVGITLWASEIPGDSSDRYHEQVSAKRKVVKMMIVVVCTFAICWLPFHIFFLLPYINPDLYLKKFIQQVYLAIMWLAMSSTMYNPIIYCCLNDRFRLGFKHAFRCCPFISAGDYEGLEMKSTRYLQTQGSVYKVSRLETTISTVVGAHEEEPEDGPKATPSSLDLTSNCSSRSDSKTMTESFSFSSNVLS
Sequence of Beta-2 adrenergic receptor (Homo sapiens) (P07550 whole entry, looked up): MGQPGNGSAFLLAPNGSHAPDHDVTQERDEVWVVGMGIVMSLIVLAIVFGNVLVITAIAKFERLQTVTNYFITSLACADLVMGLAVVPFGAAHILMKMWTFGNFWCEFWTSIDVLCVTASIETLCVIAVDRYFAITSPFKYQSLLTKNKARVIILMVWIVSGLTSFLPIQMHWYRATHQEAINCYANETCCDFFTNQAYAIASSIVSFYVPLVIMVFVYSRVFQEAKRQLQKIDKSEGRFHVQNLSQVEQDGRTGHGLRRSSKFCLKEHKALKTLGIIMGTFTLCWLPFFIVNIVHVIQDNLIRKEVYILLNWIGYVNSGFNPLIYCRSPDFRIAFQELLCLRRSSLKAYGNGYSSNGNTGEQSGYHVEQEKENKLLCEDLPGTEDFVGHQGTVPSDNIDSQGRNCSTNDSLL
Sequence of Amine oxidase [flavin-containing] B (P27338 whole entry): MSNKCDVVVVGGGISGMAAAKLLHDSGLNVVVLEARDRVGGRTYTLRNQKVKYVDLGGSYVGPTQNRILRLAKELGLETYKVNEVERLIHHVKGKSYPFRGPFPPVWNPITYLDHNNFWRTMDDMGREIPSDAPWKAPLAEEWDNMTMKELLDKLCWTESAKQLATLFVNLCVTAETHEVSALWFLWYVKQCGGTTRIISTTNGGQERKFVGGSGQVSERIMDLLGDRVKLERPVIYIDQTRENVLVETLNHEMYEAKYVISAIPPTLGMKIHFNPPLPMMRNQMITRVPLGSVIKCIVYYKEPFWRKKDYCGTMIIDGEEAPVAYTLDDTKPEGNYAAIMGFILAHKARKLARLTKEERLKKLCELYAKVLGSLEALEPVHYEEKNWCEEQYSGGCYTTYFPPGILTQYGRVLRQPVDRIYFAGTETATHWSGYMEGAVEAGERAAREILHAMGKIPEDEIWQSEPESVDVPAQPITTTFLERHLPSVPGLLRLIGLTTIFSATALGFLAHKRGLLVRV
Sequence of Glutamate receptor ionotropic, NMDA 2B (Homo sapiens) (Q13224 27-1484 limits assumed): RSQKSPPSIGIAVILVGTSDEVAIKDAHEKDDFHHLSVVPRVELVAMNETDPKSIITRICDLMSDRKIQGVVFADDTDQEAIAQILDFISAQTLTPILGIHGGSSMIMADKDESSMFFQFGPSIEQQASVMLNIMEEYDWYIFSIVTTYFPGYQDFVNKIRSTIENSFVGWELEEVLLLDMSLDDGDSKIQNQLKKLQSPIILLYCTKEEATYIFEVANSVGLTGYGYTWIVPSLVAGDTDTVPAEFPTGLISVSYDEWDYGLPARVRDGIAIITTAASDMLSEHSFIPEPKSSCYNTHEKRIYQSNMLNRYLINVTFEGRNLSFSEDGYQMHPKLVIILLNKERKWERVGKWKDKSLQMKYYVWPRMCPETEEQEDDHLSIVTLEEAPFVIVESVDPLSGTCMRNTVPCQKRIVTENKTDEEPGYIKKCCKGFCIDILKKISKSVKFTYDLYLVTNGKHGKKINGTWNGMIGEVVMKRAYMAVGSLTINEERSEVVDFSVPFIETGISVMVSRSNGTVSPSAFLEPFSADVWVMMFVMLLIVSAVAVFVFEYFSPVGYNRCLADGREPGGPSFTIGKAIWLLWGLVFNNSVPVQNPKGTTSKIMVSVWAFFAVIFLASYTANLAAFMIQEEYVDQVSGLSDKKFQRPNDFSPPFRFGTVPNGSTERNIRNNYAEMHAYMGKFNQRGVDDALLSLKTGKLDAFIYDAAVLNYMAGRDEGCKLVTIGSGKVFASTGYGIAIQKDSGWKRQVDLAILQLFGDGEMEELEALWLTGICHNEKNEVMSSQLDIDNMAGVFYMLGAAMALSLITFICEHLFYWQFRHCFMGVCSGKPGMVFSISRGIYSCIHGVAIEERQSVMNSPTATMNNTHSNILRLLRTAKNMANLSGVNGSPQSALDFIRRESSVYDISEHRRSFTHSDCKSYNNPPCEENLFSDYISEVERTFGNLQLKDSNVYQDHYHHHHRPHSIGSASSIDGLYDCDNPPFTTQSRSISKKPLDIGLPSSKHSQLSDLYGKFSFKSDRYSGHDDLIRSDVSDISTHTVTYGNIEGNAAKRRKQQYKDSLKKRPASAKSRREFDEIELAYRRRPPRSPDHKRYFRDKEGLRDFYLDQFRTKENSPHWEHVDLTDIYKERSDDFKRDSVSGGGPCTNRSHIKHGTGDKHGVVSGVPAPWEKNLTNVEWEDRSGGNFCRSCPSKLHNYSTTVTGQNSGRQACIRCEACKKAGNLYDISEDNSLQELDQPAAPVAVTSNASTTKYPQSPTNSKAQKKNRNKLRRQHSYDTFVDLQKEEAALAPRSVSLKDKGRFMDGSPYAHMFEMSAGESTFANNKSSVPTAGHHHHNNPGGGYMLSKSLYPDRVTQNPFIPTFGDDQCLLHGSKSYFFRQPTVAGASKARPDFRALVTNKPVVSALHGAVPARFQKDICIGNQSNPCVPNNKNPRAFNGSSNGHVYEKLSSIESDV

Q: What does the source list for `CCn1cc(-c2cccc(C(F)(F)F)c2)c2sc(C(=N)NC3CCS(=O)(=O)CC3)cc2c1=O`?
A: inhibition [1]: inactive; inhibition [2]: inactive; inhibition [3]: Active; Activity [4]: inactive; inhibition [5]: inactive; inhibition [6]: inactive; inhibition [7]: Active; inhibition [8]: Active; inhibition (INH) [9]: Not Active; inhibition (INH) [10]: Not Active; inhibition [11]: inactive; inhibition [12]: inactive; inhibition [13]: inactive; inhibition [14]: inactive; Activity [15]: inactive; inhibition (Homo sapiens): inactive; logD [16]: 3.7; inhibition [17]: inactive; Activity [18]: inactive; inhibition [19]: inactive; Papp [20]: 21 ×10⁻⁶ cm/s; inhibition [21]: inactive; inhibition [22]: inactive; Activity [23]: inactive

From ChEMBL document CHEMBL3769376, “Discovery of I-BRD9, a Selective Cell Active Chemical Probe for Bromodomain Containing Protein 9 Inhibition” (J Med Chem, 2016)
